Data published in ChEMBL document CHEMBL3044594, “Comparison of the inhibitory action of synthetic capsaicin analogues with various NADH-ubiquinone oxidoreductases” (Biochim Biophys Acta, 1996).
Activity calls are given as the source filed them. The calls are words filed in the database; no cut-off is given here.

Experiments:
Solanum tuberosum [1] = assay: Inhibition of Solanum tuberosum (potato) inner mitochondrial membrane NDH2 assessed as […] reductase activity at 100 uM relative to control
Solanum tuberosum [2] = assay: Inhibition of Solanum tuberosum (potato) submitochondrial particle NDH1 assessed as deaminoNADH-DB reductase activity
Escherichia coli = assay: Inhibition of Escherichia coli GR19N NDH2 assessed as […] reductase activity at 100 uM relative to control

CCCCCCCCCCOc1ccc(C(=O)NCc2ccc(OC)c(OC)c2)cc1
inhibition (Solanum tuberosum [1]): inactive
pI50 (Solanum tuberosum [2]): inactive
inhibition (Escherichia coli): 70%

COc1ccc(CNC(=O)c2ccc3ccccc3c2)cc1OC
inhibition (Solanum tuberosum [1]): inactive
inhibition (Escherichia coli): inactive

CCCCCCCCCCCC(=O)NCc1ccc(OC)c(OC)c1
inhibition (Escherichia coli): inactive

COc1ccc(CNC(=O)c2ccc(Oc3ccc(Cc4ccccc4)cc3)cc2)cc1OC
inhibition (Solanum tuberosum [1]): inactive
inhibition (Escherichia coli): 50%

CCCCCCCOc1ccc(C(=O)NCc2ccc(OC)c(OC)c2)cc1
inhibition (Solanum tuberosum [1]): inactive
inhibition (Escherichia coli): 60%

CCCCCCCOc1ccc(C(=O)NCc2ccc(OC)c(OC)c2)c(O)c1
inhibition (Solanum tuberosum [1]): 30%
inhibition (Escherichia coli): 90%

CCCCc1ccc(Oc2ccc(C(=O)NCc3ccc(OC)c(OC)c3)cc2)cc1
inhibition (Solanum tuberosum [1]): inactive
inhibition (Escherichia coli): 60%

CCCCCCCCCCCC(=O)NCc1ccc(OC)cc1OC
inhibition (Solanum tuberosum [1]): inactive
inhibition (Escherichia coli): inactive

CCC(C)(C)c1ccc(Oc2ccc(C(=O)NCc3ccc(OC)c(OC)c3)cc2)cc1
inhibition (Escherichia coli): 60%

C/C=C(\C)[C@H](O)[C@H](C)/C=C(C)/C=C/C/C(C)=C/Cc1nc(OC)c(OC)c(O)c1C
inhibition (Escherichia coli): 50%

C=C(C)[C@H]1Cc2c(ccc3c2O[C@@H]2COc4cc(OC)c(OC)cc4[C@@H]2C3=O)O1
inhibition (Solanum tuberosum [1]): inactive
inhibition (Escherichia coli): 70%

CCCCCCCCCCCCC(=O)Nc1ccc(OC)c(OC)c1
inhibition (Solanum tuberosum [1]): inactive
inhibition (Escherichia coli): inactive

COc1ccc(CNC(=O)c2ccc(-c3ccccc3)cc2)cc1OC
inhibition (Solanum tuberosum [1]): inactive
inhibition (Escherichia coli): inactive

CCCCCCCCCCCC(=O)NCc1ccc(OC)cc1
inhibition (Solanum tuberosum [1]): 100%
inhibition (Escherichia coli): 80%

CCCCCCCCc1ccc(C(=O)NCc2cc(OC)ccc2OC)cc1
inhibition (Escherichia coli): 60%

COc1ccc(CNC(=O)c2ccccc2)cc1OC
inhibition (Solanum tuberosum [1]): inactive
pI50 (Solanum tuberosum [2]): inactive
inhibition (Escherichia coli): inactive

CCCCCCCCc1ccc(C(=O)N(C)Cc2ccc(OC)c(OC)c2)cc1
inhibition (Escherichia coli): 60%

COc1ccc(CNC(=O)c2ccc(Oc3ccccc3C)cc2)cc1OC
pI50 (Solanum tuberosum [2]): inactive
inhibition (Escherichia coli): 90%

COc1ccc(CNC(=O)c2ccccc2C)cc1OC
inhibition (Solanum tuberosum [1]): inactive
pI50 (Solanum tuberosum [2]): inactive
inhibition (Escherichia coli): inactive

COc1ccc(OC)c(CNC(=O)c2ccc(Oc3ccc(C(C)(C)C)cc3)cc2)c1
inhibition (Escherichia coli): 60%

Cc1nn(C)c(Oc2ccccc2)c1/C=N/OCc1ccc(C(=O)OC(C)(C)C)cc1
inhibition (Escherichia coli): 60%

CCCCCCCCCCCC(=O)NCc1ccc2c(c1)OCO2
inhibition (Solanum tuberosum [1]): inactive
inhibition (Escherichia coli): 60%

CCCCc1ccc(C(=O)NCc2ccc(OC)c(OC)c2)cc1
inhibition (Solanum tuberosum [1]): inactive
pI50 (Solanum tuberosum [2]): inactive
inhibition (Escherichia coli): inactive

CCCCCCCCCCCC(=O)NCc1cc(OC)cc(OC)c1
inhibition (Solanum tuberosum [1]): inactive
inhibition (Escherichia coli): inactive

COc1ccc(CNCc2ccc(Oc3ccc(C(C)(C)C)cc3)cc2)cc1OC
inhibition (Solanum tuberosum [1]): inactive
inhibition (Escherichia coli): 60%

CCCCCCCCCCCC(=O)NCc1ccc(Cl)c(Cl)c1
inhibition (Solanum tuberosum [1]): inactive
inhibition (Escherichia coli): 70%

COc1ccc(CNC(=O)c2ccc(Oc3ccc(C(C)(C)C)cc3)cc2)cc1OC
inhibition (Solanum tuberosum [1]): 100%
inhibition (Escherichia coli): 60%

COc1cc(CNC(=O)CCCC/C=C/C(C)C)ccc1O
inhibition (Solanum tuberosum [1]): inactive
inhibition (Escherichia coli): 20%

CCCCCCCCCCNC(=O)CCc1ccc(OC)c(OC)c1
inhibition (Solanum tuberosum [1]): inactive
inhibition (Escherichia coli): 40%

CCCCCCCCCCCC(=O)NCc1cccc(OC)c1
inhibition (Solanum tuberosum [1]): 60%
inhibition (Escherichia coli): inactive

COc1ccc(CNC(=O)c2ccc(OCc3ccccc3)cc2)cc1OC
inhibition (Solanum tuberosum [1]): inactive
pI50 (Solanum tuberosum [2]): inactive
inhibition (Escherichia coli): inactive

CCCCCCCCCCCC(=O)NCc1cc(OC)ccc1OC
inhibition (Solanum tuberosum [1]): 100%
inhibition (Escherichia coli): inactive

CCCCCCCCCCCC(=O)NCc1ccc(C)c(C)c1
inhibition (Solanum tuberosum [1]): inactive
inhibition (Escherichia coli): 60%

CCCCCCCCc1ccc(C(=O)NCc2ccc(OC)c(OC)c2)cc1
inhibition (Solanum tuberosum [1]): inactive
inhibition (Escherichia coli): 50%

COc1ccc(CNC(=O)c2ccc(Oc3ccc(C)cc3)cc2)cc1OC
inhibition (Solanum tuberosum [1]): inactive
pI50 (Solanum tuberosum [2]): inactive
inhibition (Escherichia coli): inactive

CCCCCCCCCCCC(=O)N(C)Cc1ccc(OC)c(OC)c1
inhibition (Escherichia coli): inactive

CCCCCCCCCCCC(=O)NCc1ccccc1OC
inhibition (Solanum tuberosum [1]): inactive
inhibition (Escherichia coli): inactive

COc1ccc(CN(C)C(=O)c2ccc(Oc3ccc(C(C)(C)C)cc3)cc2)cc1OC
inhibition (Solanum tuberosum [1]): inactive
inhibition (Escherichia coli): 40%

CCCCCCCCCCCC(=O)NCc1ccccc1
inhibition (Solanum tuberosum [1]): inactive
inhibition (Escherichia coli): inactive

CCCCCCCCCCCCNCc1ccc(OC)c(OC)c1
inhibition (Escherichia coli): inactive

CCCCCCCCCCCCNC(=O)c1ccc(OC)c(OC)c1
inhibition (Solanum tuberosum [1]): inactive
inhibition (Escherichia coli): inactive

CCCCCCCCCCCC(=O)N(C)Cc1cc(OC)ccc1OC
inhibition (Escherichia coli): 30%

CCCCCCCCCC(=O)NCCCc1ccc(OC)c(OC)c1
inhibition (Solanum tuberosum [1]): inactive
pI50 (Solanum tuberosum [2]): inactive
inhibition (Escherichia coli): 40%

CCCCCCCCCCCNC(=O)Cc1ccc(OC)c(OC)c1
inhibition (Solanum tuberosum [1]): inactive
inhibition (Escherichia coli): inactive

CCCCCCCCCCCC(=O)NCc1ccc(O)c(OC)c1
inhibition (Solanum tuberosum [1]): inactive
pI50 (Solanum tuberosum [2]): inactive
inhibition (Escherichia coli): 70%

COc1ccc(CNC(=O)c2ccc(C)cc2)cc1OC
inhibition (Solanum tuberosum [1]): inactive
inhibition (Escherichia coli): inactive

CCCCCCCCCCCC(=O)NCc1cccc(OC)c1OC
inhibition (Solanum tuberosum [1]): inactive
inhibition (Escherichia coli): inactive

CCCCCCCCCCCC(=O)N1CCc2cc(OC)c(OC)cc2C1
inhibition (Escherichia coli): inactive

CCCCCCCOc1cccc(C(=O)NCc2ccc(OC)c(OC)c2)c1
inhibition (Solanum tuberosum [1]): inactive
inhibition (Escherichia coli): 60%

CCCCCCCCCCC(=O)NCCc1ccc(OC)c(OC)c1
inhibition (Solanum tuberosum [1]): inactive
inhibition (Escherichia coli): inactive

COc1ccc(CNC(=O)c2cccc3ccccc23)cc1OC
inhibition (Solanum tuberosum [1]): inactive
inhibition (Escherichia coli): inactive

CCCCCCCCCCCC(=O)NCc1cc(C)ccc1C
inhibition (Solanum tuberosum [1]): inactive
inhibition (Escherichia coli): 60%

COc1ccc(CNC(=O)c2ccc(C(C)(C)C)cc2)cc1OC
inhibition (Solanum tuberosum [1]): inactive
pI50 (Solanum tuberosum [2]): inactive
inhibition (Escherichia coli): inactive
